Experiments:
Test in all cases: In vitro antibacterial activity (MIC), agar dilution
STR[…] 508 = assay type: cell-based, Streptococcus agalactiae; conditions: S. agalactiae CMX 508; BHI agar, 35-37 °C, 20-24 h
Description: (§1) Representative compounds of the present invention were assayed in vitro for antibacterial activity as follows: Twelve petri dishes containing successive aqueous dilutions of the test compound mixed with 10 mL of sterilized Brain Heart Infusion (BHI) agar (Difco 0418-01-5) were prepared. Each plate was inoculated with 1:100 (or 1:10 for slow-growing strains, such as Micrococcus and Streptococcus) dilutions of up to 32 different microorganisms, using a Steers replicator block. The inoculated plates were incubated at 35°-37° C. for 20 to 24 hours. In addition, a control plate, using BHI agar containing no test compound, was prepared and incubated at the beginning and end of each test.
(§2) An additional plate containing a compound having known susceptibility patterns for the organisms being tested and belonging to the same antibiotic class as the test compound was also prepared and incubated as a further control, as well as to provide test-to-test comparability. Erythromycin A was used for this purpose.
(§3) After incubation, each plate was examined. The minimum inhibitory concentration (MIC) was defined as the lowest concentration of drug yielding no growth, a slight haze, or sparsely isolated colonies on the inoculum spot as compared to the growth control.

[1] = test system: PSEUDOMONAS AERUGINOSA 5007; assay type: cell-based; conditions: P. aeruginosa 5007; BHI agar, 35-37 °C, 20-24 h
[2] = test system: STREPTOCOCCUS PYOGENES EES61; assay type: cell-based; conditions: S. pyogenes EES61; BHI agar, 35-37 °C, 20-24 h
[3] = test system: PSEUDOMONAS AERUGINOSA BMH10; assay type: cell-based; conditions: P. aeruginosa BMH10; BHI agar, 35-37 °C, 20-24 h
[4] = test system: STREPTOCOCCUS BOVIS A-5169; assay type: cell-based; conditions: S. bovis A-5169; BHI agar, 35-37 °C, 20-24 h
[5] = test system: STAPHYLOCOCCUS AUREUS NCTC10649M; assay type: cell-based; conditions: S. aureus NCTC10649M; BHI agar, 35-37 °C, 20-24 h
ESCHERICHIA COLI SS = assay type: cell-based; conditions: E. coli SS; BHI agar, 35-37 °C, 20-24 h
M[…] ATCC 9341 = assay type: cell-based, Micrococcus luteus; conditions: M. luteus ATCC 9341; BHI agar, 35-37 °C, 20-24 h
Description: as §1, §2, §3

M[…] ATCC 4698 = assay type: cell-based, Micrococcus luteus; conditions: M. luteus ATCC 4698; BHI agar, 35-37 °C, 20-24 h
Description: as §1, §2, §3

EN[…] ATCC 8043 = assay type: cell-based, Enterococcus faecium; conditions: E. faecium ATCC 8043; BHI agar, 35-37 °C, 20-24 h
Description: as §1, §2, §3

[6] = test system: STAPHYLOCOCCUS AUREUS CMX 642A; assay type: cell-based; conditions: S. aureus CMX 642A; BHI agar, 35-37 °C, 20-24 h
ESCHERICHIA COLI DC-2 = assay type: cell-based; conditions: E. coli DC-2; BHI agar, 35-37 °C, 20-24 h
[7] = test system: PROVIDENCIA STUARTII CMX 640; assay type: cell-based; conditions: P. stuartii CMX 640; BHI agar, 35-37 °C, 20-24 h
ESCHERICHIA COLI KNK 437 = assay type: cell-based; conditions: E. coli KNK 437; BHI agar, 35-37 °C, 20-24 h
[8] = test system: STAPHYLOCOCCUS EPIDERMIDIS 3519; assay type: cell-based; conditions: S. epidermidis 3519; BHI agar, 35-37 °C, 20-24 h
[9] = test system: MYCOBACTERIUM SMEGMATIS ATCC 114; assay type: cell-based; conditions: M. smegmatis ATCC 114; BHI agar, 35-37 °C, 20-24 h
[10] = test system: STAPHYLOCOCCUS AUREUS 1775; assay type: cell-based; conditions: S. aureus 1775; BHI agar, 35-37 °C, 20-24 h
[11] = test system: PSEUDOMONAS AERUGINOSA DPHD-5263; assay type: cell-based; conditions: P. aeruginosa DPHD-5263; BHI agar, 35-37 °C, 20-24 h
[12] = test system: ENTEROBACTER AEROGENES ATCC 13048; assay type: cell-based; conditions: E. aerogenes ATCC 13048; BHI agar, 35-37 °C, 20-24 h
[13] = test system: STAPHYLOCOCCUS AUREUS ATCC 6538P; assay type: cell-based; conditions: S. aureus ATCC 6538P; BHI agar, 35-37 °C, 20-24 h
[14] = test system: STAPHYLOCOCCUS AUREUS CMX 553; assay type: cell-based; conditions: S. aureus CMX 553; BHI agar, 35-37 °C, 20-24 h
PSEUDOMONAS CEPACIA 296I = assay type: cell-based; conditions: P. cepacia 296I; BHI agar, 35-37 °C, 20-24 h
ESCHERICHIA COLI H560 = assay type: cell-based; conditions: E. coli H560; BHI agar, 35-37 °C, 20-24 h
[15] = test system: PSEUDOMONAS AERUGINOSA DPHD-2862; assay type: cell-based; conditions: P. aeruginosa DPHD-2862; BHI agar, 35-37 °C, 20-24 h
[16] = test system: PSEUDOMONAS AERUGINOSA K799/WT; assay type: cell-based; conditions: P. aeruginosa K799/WT; BHI agar, 35-37 °C, 20-24 h
[17] = test system: NOCARDIA ARSTEROIDES ATCC 9970; assay type: cell-based; conditions: Nocardia ATCC 9970; BHI agar, 35-37 °C, 20-24 h

## CC[C@H]1OC(=O)[C@H](C)C[C@H](C)[C@@H](O[C@@H]2O[C@H](C)C[C@H](N(C)C)[C@H]2O)[C@](C)(OC)C[C@@H](C)C(=NOCOCCOC)[C@H](C)[C@@H](O)[C@]1(C)O [Ex. 8]
STR[…] 508
  minimum inhibitory concentration (MIC): 0.02
[1]
  minimum inhibitory concentration (MIC): > 100
[2]
  minimum inhibitory concentration (MIC): 0.02
[3]
  minimum inhibitory concentration (MIC): 100
[4]
  minimum inhibitory concentration (MIC): 0.02
[5]
  minimum inhibitory concentration (MIC): 0.2
ESCHERICHIA COLI SS
  minimum inhibitory concentration (MIC): 0.2
M[…] ATCC 9341
  minimum inhibitory concentration (MIC): 0.02
M[…] ATCC 4698
  minimum inhibitory concentration (MIC): 0.2
EN[…] ATCC 8043
  minimum inhibitory concentration (MIC): 0.05
[6]
  minimum inhibitory concentration (MIC): 0.2
ESCHERICHIA COLI DC-2
  minimum inhibitory concentration (MIC): 100
[7]
  minimum inhibitory concentration (MIC): > 100
ESCHERICHIA COLI KNK 437
  minimum inhibitory concentration (MIC): 100
[8]
  minimum inhibitory concentration (MIC): 0.1
[9]
  minimum inhibitory concentration (MIC): 25
[10]
  minimum inhibitory concentration (MIC): > 100
[11]
  minimum inhibitory concentration (MIC): 100
[12]
  minimum inhibitory concentration (MIC): > 100
[13]
  minimum inhibitory concentration (MIC): 0.1
[14]
  minimum inhibitory concentration (MIC): 0.2
PSEUDOMONAS CEPACIA 296I
  minimum inhibitory concentration (MIC): > 100
ESCHERICHIA COLI H560
  minimum inhibitory concentration (MIC): 25
[15]
  minimum inhibitory concentration (MIC): 100
[16]
  minimum inhibitory concentration (MIC): 100
[17]
  minimum inhibitory concentration (MIC): 0.05

Reference: patent US5747466A, “3-deoxy-3-descladinose derivatives of erythromycins A and B” (Abbott Laboratories, priority 1996, dated 1998)
